Earlier results in patent US20240390359A1, “METHODS FOR THE TREATMENT AND PREVENTION OF NON-VIRAL TICK-BORNE DISEASES AND SYMPTOMS THEREOF” (priority 2023, published 2024).

Tests used:
Babesia microti = conditions: Mongolian jirds; primaquine given daily; cited from earlier work
P. falciparum [1] = conditions: 250 mg/day; cited from earlier work
P. falciparum [2] = conditions: 250 mg/day; cited from earlier work; remark: listed apart in the source
Babesia parasites = conditions: 100 microM for 2h, in vitro; cited from earlier work
[3] = tested on: Trypanosome brucei blood stage forms; conditions: exposure for 90 minutes; cited from earlier work
[4] = tested on: Borrelia burgdoferi B31 5A18NP1 strain; conditions: 4 h; cited from earlier work
Treponema palludum = conditions: 50 or 100 microM for two hours in a 3% oxygen atmosphere; cited from earlier work
[5] = tested on: various serovars of Leptospira; conditions: exposure for as little as 30 min; cited from earlier work
Babesia = conditions: mice; cited from earlier work
Pneumocystis = conditions: mice; cited from earlier work
[6] = tested on: P. falciparum gametocytes; conditions: single dose combined with dihydroartemisinin/piperaquine; cited from earlier work
B. rodhaini [7] = conditions: cited from earlier work
B. rodhaini [8] = conditions: single dose of 20 mg/kg; immunocompromised SCID mice; cited from earlier work
B. gibsoni = conditions: splenectomized dogs, cited from earlier work
[9] = tested on: blood stages of P. falciparum; conditions: in vivo; cited from earlier work
[10] = cited from earlier work
[11] = 600 mg over three days then 200 mg weekly for up to one year; cited from earlier work
Plasmodium vivax = conditions: monotherapy 400 mg/day for three days, cited from earlier work
Plasmodium falciparum = conditions: 600 mg loading dose followed by 200 mg; challenge three days after last dose; all control subjects developed parasitemia; cited from earlier work
[12] = tested on: extracellular blood stage forms of Trypanosoma brucei; conditions: cited from earlier work
[13] = tested on: intracellular amastigote forms of Leishmania major; conditions: cited from earlier work
[14] = tested on: free-living gram-negative and gram-positive bacteria; conditions: cited from earlier work
B. microti = conditions: one patient, prior rituximab; tafenoquine as monotherapy for six weeks at approved malaria prevention dose; cited from earlier work
[15] = in vivo; cited from earlier work
[16] = cited from earlier work; remark: listed apart in the source

For `COc1cc(NC(C)CCCN)c2nccc(C)c2c1` (centres unmarked) [4-methyl substituted primaquine], the “efficacy against Babesia microti” value (Babesia microti) is listed as “more efficacious than primaquine”.
For `CC[C@H]1OC(=O)[C@H](C)[C@@H](O[C@H]2C[C@@](C)(OC)[C@@H](O)[C@H](C)O2)[C@H](C)[C@@H](O[C@@H]2O[C@H](C)C[C@H](N(C)C)[C@H]2O)[C@](C)(O)C[C@@H](C)CN(C)[C@H](C)[C@@H](O)[C@]1(C)O` [Azithromycin], the “Protective Efficacy (%) Relative to Placebo, Pf/Semi-Immune” value (P. falciparum [1]) is given as 83% (Anderson) and the “Protective Efficacy (%) Relative to Placebo, PF/Non-immune or Malaria-naïve” value (P. falciparum [2]) is given as 72% (Taylor).
In the case of `OO` [hydrogen peroxide], the “killing of Babesia parasites” value (Babesia parasites) is listed as “kills Babesia parasites in vitro”, the “hydrogen peroxide concentration that killed blood stage forms” value [3] is listed as “approximately 140 microM” and the “lowest concentration that inhibited growth” value [4] is listed as 62.5 µM. The growth (Treponema palludum) was “significantly inhibited” and the “exogenous hydrogen peroxide concentrations that killed” value [5] was under 180 µM.
For `COc1cc(NC(C)CCCN)c2ncccc2c1` (centres unmarked) [primaquine], the “single dose that cleared Babesia parasitemia” value (Babesia) is listed as 100 mg/kg, the “cure of Pneumocystis infections” value (Pneumocystis) is listed as “must be combined with clindamycin” and the “time until gametocyte infectivity statistically lower than reference values” [6] is listed as “two days post-dosing”.
In the case of `COc1cc(C)c2c(Oc3cccc(C(F)(F)F)c3)c(OC)cc(NC(C)CCCN)c2n1` (centres unmarked) [tafenoquine, N (4)-[2,6-Dimethoxy-4-methyl-5-[3-(trifluoromethyl)phenoxy]quinolin-8-yl] pentane-1,4-diamine], the “single dose that cleared Babesia parasitemia” value (Babesia) is given as 20 mg/kg, the “formation of vacuoles in B. rodhaini blood stages” value (B. rodhaini [7]; single dose of 20 mg/kg in mice) is given as “induces the formation of large vacuoles” and the parasitemia (B. rodhaini [7]; single dose of 20 mg/kg, Balb/c mice) is given as “cleared parasitemia”. The survival (B. rodhaini [7]; single dose of 20 mg/kg, Balb/c mice, infection uniformly lethal in untreated animals) was 100%, the “antioxidant enzymes in B. rodhaini” value (B. rodhaini [7]; single dose treatment in mice) was “upregulated” and the death (B. rodhaini [8]) was “delayed not prevent”. The parasitemia (B. gibsoni; 100 mg tablet (9-11.5 mg/kg) on Days 12, 19 and 48) was “sufficient to clear and cure”, the “symptoms of infections such as anorexia, elevated respiration and pulse” value (B. gibsoni) was “alleviated” and the “activity against the blood stages of P. falciparum” value [9] was “quite effective”. For the same compound, the “effect on QTC prolongation associated with chloroquine” value ([10]; coadministered with chloroquine) was “did not increase the QTC prolongation”, the “effect on QTC interval” value ([10]; doses of up to 1200 mg over three days) was “not found to increase the upper limit of 90% confidence interval of the QTC interval” and the “overall rate of adverse events relative to placebo” value [11] was “without increasing the overall rate of adverse events”. The “specific adverse events with increased risk” value [11] was “gastrointestinal effects [mild to moderate] and cornea verticillata”, the “day by which all patients cleared blood stage parasites” value (Plasmodium vivax) was at most 8 days and the “relapses during the follow up period” value (Plasmodium vivax; patients with data available) was “no relapses”. The “development of blood stage parasitemia after challenge” value (Plasmodium falciparum) was “none of the tafenoquine subjects did”, the potency of killing [12] was under 4 µM and the potency of killing [13] was under 4 µM. For the same compound, the “activity against gram-negative versus gram-positive bacteria” value [14] was “much less active against free-living gram-negative bacteria than free-living gram-positive bacteria”, the “clinical outcome of babesiosis treatment” value (B. microti) was “the patient was cured” and the half-life [15] was 14 days. For the same compound, the “doses that may not be well tolerated” value ([16]; G6PD deficient subjects) was at least 300 mg, the “doses that may be well tolerated” value ([16]; G6PD normal adult subjects) was “up to 400 mg” and the “doses often not well tolerated” value ([16]; adult subjects regardless of G6PD status) was “above 400 mg”.
